# From patent US20250099448A1, “HETEROCYCLIC COMPOUNDS” (Hoffmann-La Roche Inc., priority 2022, published 2025)
# Molecular target: T1, MAGL protein (Homo sapiens, UniProt Q99685)
# T1 sequence (Q99685 1-303): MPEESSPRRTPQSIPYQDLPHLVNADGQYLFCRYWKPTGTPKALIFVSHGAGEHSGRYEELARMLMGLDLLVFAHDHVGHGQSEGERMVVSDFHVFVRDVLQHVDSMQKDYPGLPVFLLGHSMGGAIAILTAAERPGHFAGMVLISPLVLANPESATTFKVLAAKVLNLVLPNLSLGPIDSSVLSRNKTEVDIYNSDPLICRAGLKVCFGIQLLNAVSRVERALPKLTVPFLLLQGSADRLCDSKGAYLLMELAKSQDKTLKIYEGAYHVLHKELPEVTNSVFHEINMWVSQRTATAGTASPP
# Assay: 2-AG assay: MAGL inhibitory activity by hydrolysis of 2-arachidonoylglycerol to arachidonic acid, followed by mass spectrometry
# Type: biochemical
# Details: 8 μM 2-arachidonoylglycerol, 15 min preincubation, 30 min reaction at RT, RapidFire MS readout
# Summary of the method: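 MAGL was preincubated 15 min at RT with compound (12.5 to […], 3-fold steps) in 50 mM TRIS, 1 mM EDTA, 0.01% Tween-20, 2.5% DMSO. The reaction ran 30 min at RT with 8 μM 2-AG. Arachidonic acid was quantified by RapidFire SPE-MS/MS against a d8-arachidonic acid internal standard.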
row,IC50 [nM],Compound
1,10.6,N#Cc1ccc(CC2CC3(C2)CN(C(=O)N2CC4(CC(c5nc(C6CC(F)(F)C6)n[nH]5)C4)C2)C3)c(F)c1 [compound 486]
2,9.82,CC(C)(C)c1nnc(CN2CC3(C2)CN(C(=O)N2CC4(CC(c5nc(C6CC6)n[nH]5)C4)C2)C3)s1 [compound 487]
3,75.3,O=C(N1CC2(CC(Cc3nc(C(F)(F)F)cs3)C2)C1)N1CC2(CC(c3nc(C4CC(F)(F)C4)n[nH]3)C2)C1 [compound 489]
4,0.05,O=C(N1CC(C23CC(c4ccc(OC(F)(F)F)cc4)(C2)C3)C1)N1CC2(CC(c3nc(C4CC4)n[nH]3)C2)C1 [compound 490]
5,0.34,Cn1nc(CC2CC3(C2)CN(C(=O)N2CC4(CC(c5nc(C6(O)CC6)n[nH]5)C4)C2)C3)cc1C(F)(F)F [compound 491]
6,3.84,CC(C)(C)Cc1nnc(C23CC(C4CN(C(=O)N5CC6(CC(c7nc(C8(F)CC8)n[nH]7)C6)C5)C4)(C2)C3)s1 [compound 492]
7,956,CS(=N)(=O)c1cccc(CC2CC3(C2)CN(C(=O)N2CC4(CC(c5nc(C6CC(F)(F)C6)n[nH]5)C4)C2)C3)c1 (stereo not shown) [compound 493]
8,3.69,O=C(N1CC2(CC(Cc3n[nH]c(C(F)(F)F)n3)C2)C1)N1CC2(CC(c3nc(C4CC4)n[nH]3)C2)C1 [compound 494]
9,140,O=C(N1CC2(CC(Cc3cc(C(F)F)[nH]n3)C2)C1)N1CC2(CC(c3nc(C4CC(F)(F)C4)n[nH]3)C2)C1 [compound 495]
10,37,N=S(=O)(c1ccc(C2CN(C(=O)N3CC4(CC(c5nc(C6(O)CC6)n[nH]5)C4)C3)C2)cc1)C1CC1 (stereo not shown) [compound 496]
11,22.3,O=C(N1CC2(CC(c3cncc(F)c3)C2)C1)N1CC2(CC(c3nnc(C4CC4)[nH]3)C2)C1 [compound 497]
12,195,CC(C)(C)Cc1nnc(C23CC(C4CCN(C(=O)N5CC6(CC(c7nc(C8(O)CC8)n[nH]7)C6)C5)CC4)(C2)C3)o1 [compound 498]
13,3.46,N#Cc1cc(OC2CC3(C2)CN(C(=O)N2CC4(CC(c5nc(C6CC6)n[nH]5)C4)C2)C3)ccc1C(F)(F)F [compound 499]
14,0.92,O=C(N1CC2(CC(Cc3ccc(OC(F)(F)F)nc3)C2)C1)N1CC2(CC(c3nc(C4CC4)n[nH]3)C2)C1 [compound 501]
15,262,O=C(N1CC(OCc2ccc(S(=O)(=O)C(F)(F)F)cc2F)C1)N1CC2(CC(c3nc(C4CC(F)(F)C4)n[nH]3)C2)C1 [compound 502]
16,0.69,O=C(N1CC(c2cnc(NCC3(C(F)(F)F)CC3)cn2)C1)N1CC2(CC(c3nc(C4(F)CC4)n[nH]3)C2)C1 [compound 503]
17,1.04,Cc1nc(C(F)(F)F)c(CN2CC3(C2)CN(C(=O)N2CC4(CC(c5nc(C6CC6)n[nH]5)C4)C2)C3)s1 [compound 504]
18,1.3,O=C(N1CC2(CC(Cc3ccc(S(=O)(=O)C4CC4)cc3)C2)C1)N1CC2(CC(c3nc(C4(O)CC4)n[nH]3)C2)C1 [compound 505]
19,0.12,Cn1nc(CC2CC3(C2)CN(C(=O)N2CC4(CC(c5nc(C6CC6)n[nH]5)C4)C2)C3)cc1C(F)(F)F [compound 506]
20,5.84,O=C(N1CC2(CCN(Cc3ncc(C(F)F)s3)CC2)C1)N1CC2(CC(c3nc(C4CC4)n[nH]3)C2)C1 [compound 507]
21,6.66,O=C(N1CC2(CC(Cc3ncc(C(F)(F)F)cc3F)C2)C1)N1CC2(CC(c3nc(C4CC(F)(F)C4)n[nH]3)C2)C1 [compound 508]
22,5.16,N#Cc1cc(F)ccc1C12CC(C3CN(C(=O)N4CC5(CC(c6nc(C7(O)CC7)n[nH]6)C5)C4)C3)(C1)C2 [compound 509]
23,20.4,N#Cc1cccn(CC2CC3(C2)CN(C(=O)N2CC4(CC(c5nc(C6CC6)n[nH]5)C4)C2)C3)c1=O [compound 510]

row,IC50 [nM],Compound
1,20.8,Cn1nc(CC2CC3(C2)CN(C(=O)N2CC4(CC(c5nc(C6CC(F)(F)C6)n[nH]5)C4)C2)C3)cc1C(F)(F)F [compound 511]
2,0.67,N#Cc1ncc(CC2CC3(C2)CN(C(=O)N2CC4(CC(c5nc(C6(F)CC6)n[nH]5)C4)C2)C3)cc1C(F)(F)F [compound 512]
3,31.9,O=C(N1CC2(CC(c3nc(C4CC4)n[nH]3)C2)C1)N1CC2(CN(Cc3cnn(C(F)(F)F)c3)C2)C1 [compound 513]
4,0.47,O=C(N1CC(C23CC(c4cc(C5CC5)n[nH]4)(C2)C3)C1)N1CC2(CC(c3nc(C4CC4)n[nH]3)C2)C1 [compound 514]
5,0.15,O=C(N1CC2(CC(Cc3ccc(C(F)(F)F)cn3)C2)C1)N1CC2(CC(c3nc(C4(F)CC4)n[nH]3)C2)C1 [compound 517]
6,0.22,O=C(N1CC2(CC(Cc3cc(F)cc(S(=O)(=O)C(F)(F)F)c3)C2)C1)N1CC2(CC(c3nc(C4(O)CC4)n[nH]3)C2)C1 [compound 518]
7,13.9,O=C(N1CCC(c2nn(CCO)c3ccc(C(F)(F)F)cc23)CC1)N1CC2(CC(c3nnc(C4CC4)[nH]3)C2)C1 [compound 519]
8,2.23,O=C(N1CC2(CC(Oc3cncc(C(F)(F)F)c3)C2)C1)N1CC2(CC(c3nc(C4CC4)n[nH]3)C2)C1 [compound 520]
9,78.6,O=C(N1CC2(CC(c3nc(C4CC4)n[nH]3)C2)C1)N1CC2(CN(Cc3nnnn3CC(F)(F)F)C2)C1 [compound 521]
10,0.05,O=C(N1CC2(CC(Cc3ccc(C(F)(F)F)cc3F)C2)C1)N1CC2(CC(c3nc(C4(F)CC4)n[nH]3)C2)C1 [compound 522]
11,0.53,O=C(N1CC2(CC(Cn3cc(C(F)(F)F)cn3)C2)C1)N1CC2(CC(c3nc(C4(F)CC4)n[nH]3)C2)C1 [compound 523]
12,1.4,O=C(N1CC2(CC(Cc3nc(C(F)(F)F)c[nH]3)C2)C1)N1CC2(CC(c3nc(C4CC4)n[nH]3)C2)C1 [compound 524]
13,7.08,O=C(N1CC2(CCN(Cc3cc(C(F)(F)F)[nH]n3)CC2)C1)N1CC2(CC(c3nc(C4CC4)n[nH]3)C2)C1 [compound 525]
14,4.6,O=C(N1CC2(CC(Cc3ccc(S(=O)(=O)C(F)(F)F)cc3)C2)C1)N1CC2(CC(c3nc(C4CC(F)(F)C4)n[nH]3)C2)C1 [compound 526]
15,0.98,O=C(N1CC(C23CC(Cc4ccc(C(F)(F)F)cc4F)(C2)C3)C1)N1CC2(CC(c3nc(C4CC4)n[nH]3)C2)C1 [compound 527]
16,497,O=C(N1CC(C23CC(S(=O)(=O)CC4(C(F)(F)F)CC4)(C2)C3)C1)N1CC2(CC(c3nc(C4CC4)n[nH]3)C2)C1 [compound 528]
17,0.31,O=C(N1CC(C23CC(c4cccc(OC(F)(F)F)c4)(C2)C3)C1)N1CC2(CC(c3nc(C4(O)CC4)n[nH]3)C2)C1 [compound 529]
18,13.9,Cn1ncc(CC2CC3(C2)CN(C(=O)N2CC4(CC(c5nc(C6CC(F)(F)C6)n[nH]5)C4)C2)C3)c1C(F)(F)F [compound 530]
19,7.53,O=C(N1CC2(CC(c3nc(C4(F)CC4)n[nH]3)C2)C1)N1CC2(CN(Cc3cc(C(F)(F)F)ns3)C2)C1 [compound 531]
20,0.21,N=S(=O)(c1cccc(CC2CC3(C2)CN(C(=O)N2CC4(CC(c5nc(C6(O)CC6)n[nH]5)C4)C2)C3)c1)C(F)(F)F (stereo not shown) [compound 532]
21,5.57,O=C(N1CC2(CC(c3nc(C4CC4)n[nH]3)C2)C1)N1CC2(CC(S(=O)(=O)c3cccc(OC(F)(F)F)c3)C2)C1 [compound 533]
22,5.42,Cc1nc(C(F)F)nn1-c1ccc(C2CN(C(=O)N3CC4(CC(c5nnc(C6CC6)[nH]5)C4)C3)C2)cc1 [compound 534]
23,0.65,N#Cc1ncc(CC2CC3(C2)CN(C(=O)N2CC4(CC(c5nnc(C6CC6)[nH]5)C4)C2)C3)cc1C(F)(F)F [compound 535]
